BindingDB's records for doi:10.1021/cc9000357 (University of Alabama At Birmingham, 2009)
pIC50: −log10 of the molar value.

Assays:
[1] = target: T1, NH(3)-dependent NAD(+) synthetase (Bacillus anthracis, UniProt Q81RP3); assay: NADs HPLC Enzyme Assay; conditions: pH 8.5; 4 °C
T1 sequence (Q81RP3 whole entry): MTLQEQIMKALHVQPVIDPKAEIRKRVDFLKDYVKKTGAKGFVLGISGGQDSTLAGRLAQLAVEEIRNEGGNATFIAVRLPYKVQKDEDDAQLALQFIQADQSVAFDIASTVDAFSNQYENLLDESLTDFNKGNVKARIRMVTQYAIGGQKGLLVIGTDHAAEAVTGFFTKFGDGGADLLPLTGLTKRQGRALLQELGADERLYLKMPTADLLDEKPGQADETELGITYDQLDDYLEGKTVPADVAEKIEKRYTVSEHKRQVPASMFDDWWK
From the text: Inhibitory concentration of the compound measured against B. anthracis Nicotinamide adenine dinucleotide synthetase (NADs) using HPLC Enzyme Assay

[2] = target: T2, Probable nicotinate-nucleotide adenylyltransferase (Bacillus anthracis (strain CDC 684 / NRRL 3495), UniProt C3L5T6); assay: NaMNAT HPLC Enzyme Assay; conditions: pH 7.5; 0 °C
T2 sequence (C3L5T6 whole entry): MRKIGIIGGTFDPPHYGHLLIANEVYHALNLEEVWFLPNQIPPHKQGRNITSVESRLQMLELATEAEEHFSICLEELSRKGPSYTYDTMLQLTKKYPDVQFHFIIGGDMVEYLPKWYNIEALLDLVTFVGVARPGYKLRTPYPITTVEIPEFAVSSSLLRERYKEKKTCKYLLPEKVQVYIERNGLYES
From the text: Inhibitory concentration of the compound measured against B. anthracis Nicotinic acid mononucleotide adenylyltransferase (NaMNAT)using HPLC Enzyme Assay

Structure (SMILES)	pIC50 [1]	pIC50 [2]
O=C(Nc1ccc(NS(=O)(=O)c2ccc(C(F)(F)F)cc2)cc1)Nc1cccc([N+](=O)[O-])c1 [1-(3-nitrophenyl)-3-[4-[[4-(trifluoromethyl)phenyl]sulfonylamino]phenyl]urea]	3.84	–
O=C(Nc1ccc(NS(=O)(=O)c2ccc(Cl)c(Cl)c2)cc1)Nc1ccc([N+](=O)[O-])cc1 [1-[4-[(3,4-dichlorophenyl)sulfonylamino]phenyl]-3-(4-nitrophenyl)urea]	4.49	5.14
O=C(Nc1ccc(NS(=O)(=O)c2ccc(Cl)c(Cl)c2)cc1)Nc1cccc([N+](=O)[O-])c1 [1-[4-[(3,4-dichlorophenyl)sulfonylamino]phenyl]-3-(3-nitrophenyl)urea]	4.02	3.42
O=C(Nc1ccc([N+](=O)[O-])cc1)Nc1ccc(S(=O)(=O)Nc2ccc(Cl)c(Cl)c2)cc1	5.19	5.70
O=C(Nc1ccc(NS(=O)(=O)c2ccc(Cl)c(Cl)c2)cc1)Nc1ccccc1[N+](=O)[O-] [1-[4-[(3,4-dichlorophenyl)sulfonylamino]phenyl]-3-(2-nitrophenyl)urea]	3.35	< 3.22
Nc1ccc(S(=O)(=O)Nc2ccc(NC(=O)Nc3ccccc3[N+](=O)[O-])cc2)cc1 [1-[4-[(4-aminophenyl)sulfonylamino]phenyl]-3-(2-nitrophenyl)urea]	4.77	< 3.82
O=C(Nc1ccc(NS(=O)(=O)c2ccc(F)cc2)cc1)Nc1ccc([N+](=O)[O-])cc1 [1-[4-[(4-fluorophenyl)sulfonylamino]phenyl]-3-(4-nitrophenyl)urea]	–	3.43
